Columns and labels:
HCC = assay: Response assessment; format: in vivo, human; conditions: of 11 HCC patients; 3 based solely on symptomatic deterioration
AAG and albumin = conditions: bound to both AAG and albumin; cited from earlier work
[1] = cited from earlier work
[2] = Safety and tolerability, dose-limiting toxicities; format: in vivo, human; conditions: for Dose-limiting toxicity, hyperbilirubinemia (number of patients): days 1–8

**Q.** What does the source list for `CS(=O)(=O)c1ccc(C(=O)Nc2ccc(Cl)c(-c3ccccn3)c2)c(Cl)c1` [vismodegib]?
**A.** Percentage of dose excreted in urine over a 24-h interval (all patients, regardless of hepatic function, day 8): < 1%; Renal clearance (CLR) (patients with hepatic impairment compared to normal hepatic function): lower; HCC patients with progressive disease (HCC): nine; Plasma protein bound (AAG and albumin): greater than 98%; Cmax interpatient coefficient of variation [1]: ~37.4%; PK variability explained by AAG levels [1]: > 70%; AEs grade 3 or 4 in severity ([2]; all cohorts): 67.7%; Total patients who experienced DLTs of hyperbilirubinemia ([2]; all cohorts, 31 patients): three; Patients who experienced at least one AE ([2]; all groups, 31 patients): 96.8%; Adverse event frequency: abdominal pain ([2]; all patients): 22.6%; Adverse event frequency: decreased appetite ([2]; all patients): 22.6%; Adverse event frequency: dysgeusia ([2]; all patients): 22.6%; Adverse event frequency: fatigue ([2]; all patients): 67.7%; Adverse event frequency: muscle spasms ([2]; all patients): 22.6%; Adverse event frequency: nausea ([2]; all patients): 35.5%; Adverse event frequency: vomiting ([2]; all patients): 22.6%; Serious AE: abdominal pain ([2]; all patients (2 patients)): 6.5%; Serious AE: hyperbilirubinemia ([2]; all patients (2 patients)): 6.5%; Serious AE: upper gastrointestinal hemorrhage ([2]; all patients (2 patients)): 6.5%; Patients who experienced serious AEs ([2]; all patients (16 patients)): 51.6%; AEs grade 3 or 4 in severity ([2]; control cohort): 44.4%; AEs grade 3 or 4 in severity ([2]; mild cohort): 75%; Patients who experienced serious AEs ([2]; mild cohort (4 patients)): 50%; Adverse events leading to withdrawal of vismodegib: intracranial bleed ([2]; mild cohort n = 8): 1 (intracranial bleed); Deaths due to progression of disease (number of patients) ([2]; mild cohort n = 8): 1; Dose-limiting toxicity, hyperbilirubinemia (number of patients) ([2]; mild cohort n = 8, oral 150 mg daily): 0; AEs grade 3 or 4 in severity ([2]; moderate cohort): 87.5%; Patients who experienced serious AEs ([2]; moderate cohort (6 patients)): 75%; Adverse events leading to withdrawal of vismodegib: GI bleeds ([2]; moderate cohort n = 8): 2; Adverse events leading to withdrawal of vismodegib: hyperbilirubinemia ([2]; moderate cohort n = 8): 1; Deaths due to progression of disease (number of patients) ([2]; moderate cohort n = 8): 3; Patients who experienced serious AEs ([2]; normal cohort (3 patients)): 33.3%; Adverse events leading to withdrawal of vismodegib ([2]; normal cohort n = 9): 0; Deaths due to progression of disease (number of patients) ([2]; normal cohort n = 9): 0; Dose-limiting toxicity, hyperbilirubinemia (number of patients) ([2]; normal cohort n = 9, oral 150 mg daily): 0; AEs grade 3 or 4 in severity ([2]; severe cohort): 66.7%; Patients who experienced serious AEs ([2]; severe cohort (3 patients)): 50%; Adverse events leading to withdrawal of vismodegib: fatigue ([2]; severe cohort n = 6): 1; Adverse events leading to withdrawal of vismodegib: hyperbilirubinemia ([2]; severe cohort n = 6): 2; Adverse events leading to withdrawal of vismodegib: hyponatremia ([2]; severe cohort n = 6): 1; Adverse events leading to withdrawal of vismodegib: leukocytosis ([2]; severe cohort n = 6): 1; Deaths due to progression of disease (number of patients) ([2]; severe cohort n = 6): 1
